{"source": "patent US9125352B2", "about": "“Method for maturing and synchronizing conifer somatic embryos” (SweTree Technologies AB, priority 2010, dated 2015)", "key": {"[1]": {"system": "somatic embryos of Norway spruce, cell line 06:28:05", "assay": "Mature embryos left 12 days in maturation medium with 0.25 M inositol after particle bombardment (Example 1)", "format": "cell-based", "from_the_text": "The aim of the experiment was to infect somatic embryos of Norway spruce with a virus using a particle gun according to a routine method (Clapham et al. 2000: Scand. J. For. Res. 15:151-160) and derive plants containing the virus. The original standard bombardment procedure was developed for the transformation of embryogenic cultures consisting of immature embryos (i.e. proembryonic masses or PEMs). In the original protocol, from one to two hours before bombardment with gold particles coated with DNA, the cells are temporarily plasmolyzed with 0.25 M myo-inositol in proliferation medium (Table 4) to reduce damage from the penetration of the gold particles.\nIn the present experiment, mature embryos instead of PEMs were bombarded. The cultures of cell line 06:28:05, had been matured on standard DKM medium containing ABA for 50, days before bombardment. The embryos were exposed to medium containing 0.25, M inositol for 1-2, hours before bombardment. After bombardment the cells were unintentionally left in maturation medium containing 0.25, M inositol for 12, days, then returned to standard DKM medium containing ABA. […] About 50 plantlets with more or less well developed roots were planted out at once in pots containing mineral wool, which is not usually possible; fifteen of these survived and continued to grow. Sixty-two additional plantlets were grown aseptically on solid standard germination medium (quarter strength Schenk and Hildebrandt) to develop the root system for about 2, months; 51, of these grew well enough to plant out in pots of mineral wool. At least 48, of the plants were growing vigorously a month later. The appearance of these somatic embryo-derived plants encouraged the inventors to believe that mature embryos exposed to the relatively high concentration of inositol in the present experiment were of unusually high quality and ready for germination, without partial drying under high humidity for 2-3, weeks as in the standard procedure."}, "[2]": {"system": "embryogenic cultures of cell-line 06:28:05", "assay": "Maturation in temporary-immersion bioreactors, DKM+ABA then DKM+0.25 M inositol+ABA, then germination (Example 2)", "format": "cell-based, Norway spruce", "description": "Several experiments were performed to confirm the observations of Example 1 and to refine the novel culture method. Subsequent experiments confirm that the process of bombardment itself has no effect additional to the inclusion of 0.25, M myo-inositol in the medium. In the present experiment, embryogenic cultures of the same cell-line 06:28:05, were matured in bioreactors that enabled periodic temporary submersion in liquid DKM containing ABA. In two bioreactors, the embryos were matured for 38, days in DKM+ABA, then for 25 days in DKM+0.25, M inositol+ABA. In two control bioreactors, the cultures were maintained continuously in DKM+ABA, without the inositol treatment.\nEmbryos from the experimental and control reactors were placed on solid germination media in petri dishes mainly to optimize germination media. Plantlet quality was assessed after 6, days' germination as ‘bent’ or ‘not bent’. Whereas only 12, out of 134, (9%) inositol-treated embryos developed into bent plantlets, 50, out of 140, (36%) of the control embryos developed into bent plantlets. The difference was highly significant (P<0.0001) by Fisher's contingency test."}, "[3]": {"system": "embryogenic cells, cell-line 06:28:05", "assay": "Comparison of inositol with other sugar alcohols and with sucrose on solid DKM+ABA maturation medium (Example 3)", "format": "cell-based, Norway spruce", "from_the_text": "The action of 0.25, M inositol in improving somatic embryo quality is likely to be partly osmotic, partly nutritional, with cell signaling effects also involved. The inventors tested whether 0.25, M inositol could be replaced with 0.25, M of other sugar alcohols (mannitol and sorbitol) or 0.25, M extra sucrose by spreading 1.0, to 1.5, g fresh weight of embryogenic cells, cell-line 06:28:05, on each of six plates of solid DKM+ABA maturation medium for continued growth and development over four weeks, with one subculture after 2, weeks. The cells were then subcultured onto three plates each (1.0-1.5, g cells per plate) of medium containing in addition either a) 0.25, M inositol, or b) 0.125, M mannitol and 0.125, M sorbitol, or c) 0.25, M sucrose. Control cells continued on standard medium. After three weeks, embryos of good quality were transferred to germination medium, ten embryos per petri dish, as a rough quantitative estimate of quality."}, "[4]": {"system": "embryos of cell-line 28:05", "assay": "Growth of germinated inositol-treated embryos in stonewool pots for three months (Example 5)", "format": "in vivo, Norway spruce", "description": "Embryos of cell-line 28:05, treated with 0.25, M inositol and germinated in vitro as described above were grown on in stonewool in plastic pots 8×8×10, cm with standard commercial mineral nutrition in a growth chamber in continuous light at 20° C. for three months."}, "[5]": {"system": "embryogenic callus of Scots pine, Pinus sylvestris, cell-line 42:6:3", "assay": "Inositol concentration series on DCR maturation medium and germination on DKM (Example 6)", "format": "cell-based", "from_the_text": "In order to verify the broad use of the newly invented method, additional conifers have been tested by adapting the methods of Examples 4, and 5. Embryogenic callus of Scots pine, Pinus sylvestris, cell-line 42:6:3, was proliferated on DCR medium (Burg et al. 2007:, J. Exp. Bot. 58: 687-698) containing 2,4-D and BA at the same concentrations as described for spruce. The cells were taken through the early maturation step on DCR medium containing 7.5% polyethylene glycol 400, 3% maltose (replacing sucrose) and 16, mg per liter abscisic acid (Burg et al. 2007:, J. Exp. Bot. 58: 687-698). Samples of cells were then exposed to the same medium containing inositol at concentrations of 0.0005, M 0.1, M, 0.2, M, 0.25, M, 0.3, M or 0.5 M for four weeks. […] Somatic embryogenesis is more problematic in pine than in spruce, so that experiments with mature embryos were on a small scale."}, "[6]": {"system": "Mexican Yellow Pine, Pinus oocarpa, line 2", "assay": "Corresponding inositol experiments with Mexican Yellow Pine (Example 6)", "format": "cell-based", "conditions": "inositol series as for Scots pine"}, "somatic embryo cultures": {"system": "somatic embryo cultures", "assay": "Embryo culture in medium with plasmolytic or near plasmolytic concentration of sugar alcohol (general findings)", "format": "cell-based", "from_the_text": "The invention is based on a serendipitous discovery. Gene transfer to spruce somatic embryos using a particle gun was experimented with, using a special medium originally designed for use with gene transfer for embryogenic cultures, containing 0.25, M myo-inositol. The resulting plasmolysis reduces damage during penetration by the gold particles, since it relaxes the tension in the cell membranes and minimizes tearing. By mistake, the somatic embryos were left in this medium for 12, days instead of returning them to the normal proliferation medium as intended. […] Consequently, the cells are first plasmolyzed and then gradually deplasmolyzed."}, "[7]": {"conditions": "0.25 M inositol, after 6 days' germination, out of 134 embryos"}, "[8]": {"conditions": "high concentrations of inositol"}}, "data": [{"compound": "O[C@H]1[C@H](O)[C@@H](O)[C@H](O)[C@@H](O)[C@H]1O", "note": "[inositol, cis-1,2,3,5-trans-4,6-cyclohexanehexol]", "values": [{"measurement": "embryo appearance compared with embryos from the standard protocol", "setting": "[1]; 0.25 M inositol", "result": "strikingly more uniform and broader in relation to length"}, {"measurement": "plantlets that survived and continued to grow after being planted out at once in pots containing mineral wool", "setting": "[1]; 0.25 M inositol 12 days, of about 50 plantlets planted out", "result": "fifteen"}, {"measurement": "plantlets that grew well enough to plant out in pots of mineral wool", "setting": "[1]; 0.25 M inositol 12 days, of sixty-two plantlets grown about 2 months on solid germination medium", "result": 51}, {"measurement": "plants growing vigorously a month later", "setting": "[1]; 0.25 M inositol 12 days, of the 51 planted out in mineral wool", "result": "At least 48"}, {"measurement": "germination after return to standard DKM medium containing ABA", "setting": "[1]; 0.25 M inositol for 12 days, observed after 8 days on standard DKM+ABA", "result": "many embryos had germinated and formed healthy well developed small plantlets"}, {"measurement": "embryos that developed into bent plantlets (number)", "setting": "[2]; [7]", "result": 12}, {"measurement": "embryos that developed into bent plantlets (percent)", "setting": "[2]; [7]", "result": 9, "unit": "%"}, {"measurement": "embryo appearance compared with controls", "setting": "[2]; 38 days DKM+ABA then 25 days DKM+0.25 M inositol+ABA, bioreactors", "result": "strikingly more uniform, and broader in relation to length"}, {"measurement": "yield of high-quality embryos relative to untreated controls", "setting": "[2]; bioreactor experiment, 0.25 M inositol", "result": "six to eight"}, {"measurement": "embryos of good quality relative to mannitol plus sorbitol", "setting": "[3]; 0.25 M inositol vs 0.125 M mannitol plus 0.125 M sorbitol", "result": "about twice"}, {"measurement": "Plates with 10 high quality embryos", "setting": "[3]; addition to standard medium: 0.25 M (or 0.125 M + 0.125 M), three weeks, three plates of 1.0-1.5 g cells per treatment", "result": 6}, {"measurement": "condition of plants after three months in stonewool", "setting": "[4]; 0.25 M inositol, growth chamber, continuous light, 20° C.", "result": "vigorous and healthy"}, {"measurement": "longer term effects on subsequent growth", "setting": "[4]; [8]", "result": "no unexpected longer term effects on subsequent growth"}, {"measurement": "signs of premature germination (hypocotyl extension, greening of cotyledons)", "setting": "[5]; 0.0005 M and 0.1 M inositol, four weeks", "result": "some of the embryos showed characteristic signs of premature germination"}, {"measurement": "maturation and precocious germination", "setting": "[5]; 0.2-0.3 M inositol, four weeks", "result": "precocious germination was inhibited"}, {"measurement": "proportion of embryos that developed healthy roots on the germination medium, compared with 0.0005 M", "setting": "[5]; 0.25 M inositol", "result": "higher proportion"}, {"measurement": "signs of stress (red colour under the cotyledons) within two days of germination on DKM", "setting": "[5]; 0.25 M inositol", "result": "no such signs of stress"}, {"measurement": "condition of embryos compared with those exposed to 0.0005 M inositol", "setting": "[5]; 0.25 M inositol, groups of ten embryos germinated on DKM", "result": "in better condition"}, {"measurement": "effect on further maturation of the embryos", "setting": "[5]; 0.5 M inositol", "result": "inhibited further maturation of the embryos"}, {"measurement": "outcome compared with the Scots pine experiments", "setting": "[6]", "result": "showed the same tendencies"}, {"measurement": "need for partial drying before germination", "setting": "somatic embryo cultures; [8]", "result": "require no further partial drying before germination"}, {"measurement": "quality of mature embryos formed", "setting": "somatic embryo cultures; high concentrations of inositol (myo-inositol) in the culture media", "result": "more robust mature embryos with improved rooting capabilities"}, {"measurement": "effect on maturation in the embryo cultures", "setting": "somatic embryo cultures; plasmolytic or near plasmolytic concentration", "result": "induce synchronous maturation"}]}]}
